Results taken from patent US12075784B2, “Mixtures containing secondary calcium and magnesium phosphonate and their use as fungicide or fertilizer” ([…] (haftungsbeschränkt), priority 2016, dated 2024).

Key:
Erysiphe graminis = test: B.6 Protective treatment against Erysiphe graminis in wheat; format: in vivo; settings: wheat cultivar Kanzler sprayed to runoff, example 12 diluted 1:100, examples 13/14 1:200, inoculated after 24 h, 18 days after treatment
Description: For a treatment according to the invention, the reaction mixture obtained in example 12 was diluted with water in 1:100 v/v ratio, then 0.05% Silwet® L-77 was added. For comparison, the reaction mixtures obtained in examples 13 and 14, respectively, were diluted with water in 1:200 v/v ratio, then 0.05% Silwet® L-77 was added.
B.6 Protective Treatment Against Erysiphe graminis in Wheat
In a greenhouse, wheat plants of the cultivar Kanzler with 2-3 fully developed leaves were sprayed to runoff-point with either a suspension of the product of example 13 containing secondary magnesium phosphonate, or of the product of example 14 containing secondary calcium phosphonate, or of the product of example 12 containing secondary calcium and magnesium phosphonate; in each case diluted and supplemented with a wetting agent as defined in example B.5.1. After 24 h the plants were inoculated with conidia of Erysiphe graminis. 18 days after the treatment with the active compounds the extent of infection (formation of conidia) was determined visually and the efficacy W was calculated from the infected leave surface according to Abbot's formula. The expected efficacies for active compound combinations (i.e. secondary magnesium and calcium phosphonate) were determined using Colby's formula.

[1] = test system: Sphaerotheca fuliginea and Erysiphe cichoracearum; test: B.7 Protective treatment against Sphaerotheca fuliginea and Erysiphe cichoracearum in cucumber; format: in vivo; settings: Cucumis sativus half-leaf treatment, example 12 diluted 1:100, examples 13/14 1:200, inoculated after 24 h, 18 days after treatment
Description: (§1) Potted grapevines were inoculated with Plasmopara viticola both before foliar treatment with the active agent and after washing the active agent coating off the leaves in order to test the effect of the residual depot of actives. To ensure a good comparability of the results and avoid or at least strongly minimize falsification of the effects, e.g. due to the use of leaves of different physiological age or of different expositions, a half-leaf treatment was carried out: In each case only one half of a leaf was treated, while the other half remained untreated and served as a control and reference for determining efficacy; the two halves being separated by the middle leaf vein. For this purpose a precision sprayer was used for applying the active compounds on the one leaf half, while the half which was to stay untreated was covered with a blotting paper during spraying. […]
In a greenhouse, leaves of Cucumis sativus plants var. […] 18 days after the treatment with the active compounds the extent of infection (formation of conidia) was determined visually and the efficacy W was calculated from the infected leave surface according to Abbot's formula. The expected efficacies for active compound combinations (i.e. secondary magnesium and calcium phosphonate) were determined using Colby's formula.

Plasmopara viticola [2] = test: B.5.2 Curative treatment against Plasmopara viticola in grapevines; format: in vivo; settings: without second inoculation, half-leaf, example 12 diluted 1:100, examples 13/14 1:200, 5 days after inoculation
Description: as §1
(§2) The experiment was carried out in analogy to B.5.1, however without the second inoculation. 5 days after the inoculation the plants were placed for 12 h into a humid chamber and then the extent of infection was determined visually and the efficacy W was calculated from the infected leave surface according to Abbot's formula. The expected efficacies for active compound combinations (i.e. secondary magnesium and calcium phosphonate) were determined using Colby's formula.

Plasmopara viticola [3] = test: B.5.1 Protective and curative treatment against Plasmopara viticola in grapevines (half-leaf); format: in vivo; settings: example 12 diluted 1:100, examples 13/14 1:200, 0.05% Silwet L-77, ca. 2 μl/cm2, 6 days after first inoculation
Description: as §1, with “vein.” for “vein. For this purpose a precision sprayer was used for applying the active compounds on the one leaf half, while the half which was to stay untreated was covered with a blotting paper during spraying.”
6 days after the first inoculation the plants were placed for 12 h into a humid chamber and then the extent of infection was determined visually and the efficacy W was calculated from the infected leave surface according to the above Abbot's formula.
The expected efficacies for active compound combinations (i.e. secondary magnesium and calcium phosphonate) were determined using Colby's formula (Colby, S. R., “Calculating synergistic and antagonistic responses of herbicide combinations”, Weeds, 15, pp. 20-22, 1967) and compared to the observed efficacies. […]

Plasmopara viticola [4] = test: B.5.3 Protective treatment against Plasmopara viticola in grapevines; format: in vivo; settings: without first inoculation, washed after 24 h, example 12 diluted 1:100, examples 13/14 1:200, 5 days after inoculation
Description: as §1
as §2, with “the first” for “the second”

Rhizopus stolonifer = test: B.4 Protective action against Rhizopus stolonifer on rye bread (Pumpernickel); settings: Pumpernickel slices; mixtures 1:50 diluted with water, sorbic acid 0.1% solution; after one week of incubation
Description: B.4 Protective Action Against Rhizopus stolonifer on Rye Bread (“Pumpernickel”)
Sterile slices of Pumpernickel were each sprayed with water (control), a 0.1% sorbic acid solution (a standard preservative) or the mixture of example 1 or of example 8 (1:50 diluted with water). For inoculation with the fungus, small disks of blotting paper were soaked with a spore suspension of Rhizopus stolonifer and placed onto the center of Pumpernickel slices. After one week of incubation, the degree of fungus formation was examined.

powdery mildew = settings: dogwood plants; untreated control 30%; from U.S. Pat. Nos. 5,736,164 and 5,800,837; cited from earlier work

Compound	Observed efficacy (Erysiphe graminis)	Observed efficacy [1]	Observed efficacy (Plasmopara viticola [2])	Observed efficacy (Plasmopara viticola [3])	Observed efficacy (Plasmopara viticola [4])	Infected surface area (Rhizopus stolonifer)	leaves infected with powdery mildew (powdery mildew)
secondary calcium phosphonate [Example 14]	11.7%	20.0%	18.3%	24.6%	35.1%	–	–
C/C=C/C=C/C(=O)O [Sorbic acid, sorbic acid]	–	–	–	–	–	40%	–
potassium phosphonate	–	–	–	–	–	–	100%
secondary magnesium phosphonate [Example 13]	36.7%	43.3%	47.3%	16.5%	44.5%	–	–
